Test results: patent US11945816B2, “Inhibitors of EGFR and/or HER2 and methods of use” (Dana-Farber Cancer Institute, Inc., priority 2017, dated 2024)

Assays:
Format in all cases: cell-based
[1] = biological target: T1, wild-type HER2 transformed Ba/F3 cells (Homo sapiens, UniProt P04626); experiment: Proliferation inhibition assay, wild-type HER2 transformed Ba/F3 cells; details: MTS assay, 72 hours, Table 9 key
T1 construct: expressed in transfected cells; host or cells: Ba/F3
Method: (§1) Cell growth inhibition can be assessed by MTS assay or by Cell Titer Glo Luminescent Cell viability assay (Promega®). Cells are seeded and grow in culture plates before they are exposed to representative compounds of the application for various duration. The viability of the cells are then assessed. […] The growth curves can be fitted using a nonlinear regression model with sigmoidal dose response.
(§2) Cell growth inhibition was assessed by MTS assay for Ba/F3, DFCI58-229, and DFCI127c cells, or by Cell Titer Glo Luminescent Cell viability assay (Promega®) for DFC1362JC cells, 3000 Ba/F3 cells were seeded for per well in 96-well plates, and were exposed to representative compounds of the application (3.3 nM to 10 μM) for 72 hours. For DFCI58-229, DFCI127c, and DFC1362JC cells, 5000 cells were seeded per well. All experimental points included 6 to 12 wells. […] The growth curves were fitted using a nonlinear regression model with sigmoidal dose response.
(§3) Activities of representative compounds of the present application in inhibiting EGFR and HER2 were tested by MTS assay (for Ba/F3 cell, DFCI58-229 cell, and DFCI127c cells) or by CellTiter-Glot luminescent cell viability assay (for DFCI362JC cells). For assays with Ba/F3 cells, 3000 cells were seeded for per well in 96-well plates and were exposed to indicated compounds with a concentration of 3.3 to 10 μM for 72 hours. For assays with DFCI58-229 cell, DFCI127c cell, or DFCI362JC cell, 5000 cells were seeded per well in 96-well plates and were exposed to indicated compounds with a concentration of 3.3 to 10 μM for 72 hours.

[2] = biological target: T2, EGFR InsGY transformed Ba/F3 cells (Homo sapiens, UniProt P00533, D770Y/INS769G); experiment: Western blot, EGFR phosphorylation, EGFR InsGY Ba/F3 cells; details: indicated concentrations, 6 hours of treatment
T2 construct: expressed in transfected cells; host or cells: Ba/F3
Method: (§4) Cells are seeded and grow in culture plates, and then treated with representative compounds of the application the following day for various duration. Cells are washed with PBS and lysed.
(§5) Cells were plated at 5×10^5 cells per well in 6-well plates and treated with representative compounds of the application the following day. After 6 hours of treatment, cells were washed with PBS and lysed with NP40 buffer (Calbiochem®) supplemented with Complete™ Mini protease inhibitor and PhosSTOP™ phosphatase inhibitors (Rocheg).
(§6) Western blot analysis was then performed on the cells. The cells were plated at 5×10^5 cells per well in 6-well plates and treated with the indicated concentrations of the compound.
(§7) After 6 hours of treatment, cells were washed with PBS and lysed with NP40 buffer (Calbiochem) supplemented with Complete Mini protease inhibitor and PhosSTOP phosphatase inhibitors (Roche).

[3] = biological target: T3, wild-type EGFR transformed Ba/F3 cells (Homo sapiens, UniProt P00533); experiment: Proliferation inhibition assay, wild-type EGFR transformed Ba/F3 cells; details: MTS assay, 72 hours
T3 construct: expressed in transfected cells; host or cells: Ba/F3
Method: as §1, §2, §3

[4] = biological target: T4, EGFR InsSVD (D770_N771insSVD) transformed Ba/F3 cells (Homo sapiens, UniProt P00533, INS770SVD); experiment: Proliferation inhibition assay, EGFR InsSVD transformed Ba/F3 cells; details: MTS assay, 72 hours
T4 construct: expressed in transfected cells; host or cells: Ba/F3
Method: as §1, §2, §3

[5] = biological target: T5, mutant EGFR L858R transformed Ba/F3 cells (Homo sapiens, UniProt P00533, L858R); experiment: Proliferation inhibition assay, EGFR L858R transformed Ba/F3 cells
T5 construct: expressed in transfected cells; host or cells: Ba/F3

[6] = biological target: T6, HER2 InsYVMA (A775_G776insYVMA) transformed Ba/F3 cells (Homo sapiens, UniProt P04626, INS775YVMA); experiment: Proliferation inhibition assay, HER2 InsYVMA transformed Ba/F3 cells; details: MTS assay, 72 hours, Table 9 key
T6 construct: expressed in transfected cells; host or cells: Ba/F3
Method: as §1, §2, §3

[7] = biological target: T3, wild-type EGFR transformed Ba/F3 cells; experiment: Western blot, EGFR phosphorylation, wild-type EGFR Ba/F3 cells; details: indicated concentrations, 6 hours of treatment
Method: as §4, §5, §6, §7

[8] = biological target: T7, HER2 InsVC (G776delinsVC) transformed Ba/F3 cells (Homo sapiens, UniProt P04626, G776C/INS775V); experiment: Proliferation inhibition assay, HER2 InsVC transformed Ba/F3 cells; details: MTS assay, 72 hours, Table 9 key
T7 construct: expressed in transfected cells; host or cells: Ba/F3
Method: as §1, §2, §3

[9] = biological target: T8, EGFR InsGY (D770delinsGY) transformed Ba/F3 cells (Homo sapiens, UniProt P00533, D770Y/INS769G); experiment: Proliferation inhibition assay, EGFR InsGY transformed Ba/F3 cells; details: MTS assay, 72 hours
T8 construct: expressed in transfected cells; host or cells: Ba/F3
Method: as §1, §2, §3

[10] = biological target: T9, EGFR InsHH (Y764_V765insHH) transformed Ba/F3 cells (Homo sapiens, UniProt P00533, INS764HH); experiment: Proliferation inhibition assay, EGFR InsHH transformed Ba/F3 cells; details: MTS assay, 72 hours
T9 construct: expressed in transfected cells; host or cells: Ba/F3
Method: as §1, §2, §3

[11] = biological target: T10, EGFR InsH transformed Ba/F3 cells (Homo sapiens, UniProt P00533, DUP773-773); experiment: Proliferation inhibition assay, EGFR InsH transformed Ba/F3 cells; details: MTS assay, 72 hours
T10 construct: expressed in transfected cells; host or cells: Ba/F3
Method: as §1, §2, §3

[12] = biological target: mutant EGFR T790M/exon19del transformed Ba/F3 cells (Homo sapiens, UniProt P00533, T790M, cells depend on it, form not given); experiment: Proliferation inhibition assay, EGFR T790M/exon19del transformed Ba/F3 cells
[13] = biological target: T11, mutant EGFR T790M/L858R transformed Ba/F3 cells (Homo sapiens, UniProt P00533, L858R/T790M); experiment: Proliferation inhibition assay, EGFR T790M/L858R transformed Ba/F3 cells
T11 construct: expressed in transfected cells; host or cells: Ba/F3

[14] = biological target: T12, EGFR InsNPG (D770_N771insNPG) transformed Ba/F3 cells (Homo sapiens, UniProt P00533, INS770NPG); experiment: Proliferation inhibition assay, EGFR InsNPG transformed Ba/F3 cells; details: MTS assay, 72 hours
T12 construct: expressed in transfected cells; host or cells: Ba/F3
Method: as §1, §2, §3

[15] = biological target: T13, EGFR InsSVD transformed Ba/F3 cells (Homo sapiens, UniProt P00533, INS770SVD); experiment: Western blot, EGFR phosphorylation, EGFR InsSVD Ba/F3 cells; details: indicated concentrations, 6 hours of treatment
T13 construct: expressed in transfected cells; host or cells: Ba/F3
Method: as §4, §5, §6, §7

[16] = biological target: T14, EGFR InsASV (V769_D770insASV) transformed Ba/F3 cells (Homo sapiens, UniProt P00533, INS769ASV); experiment: Proliferation inhibition assay, EGFR InsASV transformed Ba/F3 cells; details: MTS assay, 72 hours
T14 construct: expressed in transfected cells; host or cells: Ba/F3
Method: as §1, §2, §3

[17] = biological target: mutant EGFR Exon19del transformed Ba/F3 cells (Homo sapiens, UniProt P00533, cells depend on it, form not given); experiment: Proliferation inhibition assay, EGFR Exon19del transformed Ba/F3 cells
[18] = biological target: T15, HER2 InsWLV transformed Ba/F3 cells (Homo sapiens, UniProt P04626, INS773WL/M774V); experiment: Proliferation inhibition assay, HER2 InsWLV transformed Ba/F3 cells; details: MTS assay, 72 hours, Table 9 key
T15 construct: expressed in transfected cells; host or cells: Ba/F3
Method: as §1, §2, §3

[19] = biological target: T16, HER2 InsGSP (P780_Y781insGSP) transformed Ba/F3 cells (Homo sapiens, UniProt P04626, INS780GSP); experiment: Proliferation inhibition assay, HER2 InsGSP transformed Ba/F3 cells; details: MTS assay, 72 hours, Table 9 key
T16 construct: expressed in transfected cells; host or cells: Ba/F3
Method: as §1, §2, §3

T7 sequence (P04626 with tags, fused parts or gaps INS775V/G776C): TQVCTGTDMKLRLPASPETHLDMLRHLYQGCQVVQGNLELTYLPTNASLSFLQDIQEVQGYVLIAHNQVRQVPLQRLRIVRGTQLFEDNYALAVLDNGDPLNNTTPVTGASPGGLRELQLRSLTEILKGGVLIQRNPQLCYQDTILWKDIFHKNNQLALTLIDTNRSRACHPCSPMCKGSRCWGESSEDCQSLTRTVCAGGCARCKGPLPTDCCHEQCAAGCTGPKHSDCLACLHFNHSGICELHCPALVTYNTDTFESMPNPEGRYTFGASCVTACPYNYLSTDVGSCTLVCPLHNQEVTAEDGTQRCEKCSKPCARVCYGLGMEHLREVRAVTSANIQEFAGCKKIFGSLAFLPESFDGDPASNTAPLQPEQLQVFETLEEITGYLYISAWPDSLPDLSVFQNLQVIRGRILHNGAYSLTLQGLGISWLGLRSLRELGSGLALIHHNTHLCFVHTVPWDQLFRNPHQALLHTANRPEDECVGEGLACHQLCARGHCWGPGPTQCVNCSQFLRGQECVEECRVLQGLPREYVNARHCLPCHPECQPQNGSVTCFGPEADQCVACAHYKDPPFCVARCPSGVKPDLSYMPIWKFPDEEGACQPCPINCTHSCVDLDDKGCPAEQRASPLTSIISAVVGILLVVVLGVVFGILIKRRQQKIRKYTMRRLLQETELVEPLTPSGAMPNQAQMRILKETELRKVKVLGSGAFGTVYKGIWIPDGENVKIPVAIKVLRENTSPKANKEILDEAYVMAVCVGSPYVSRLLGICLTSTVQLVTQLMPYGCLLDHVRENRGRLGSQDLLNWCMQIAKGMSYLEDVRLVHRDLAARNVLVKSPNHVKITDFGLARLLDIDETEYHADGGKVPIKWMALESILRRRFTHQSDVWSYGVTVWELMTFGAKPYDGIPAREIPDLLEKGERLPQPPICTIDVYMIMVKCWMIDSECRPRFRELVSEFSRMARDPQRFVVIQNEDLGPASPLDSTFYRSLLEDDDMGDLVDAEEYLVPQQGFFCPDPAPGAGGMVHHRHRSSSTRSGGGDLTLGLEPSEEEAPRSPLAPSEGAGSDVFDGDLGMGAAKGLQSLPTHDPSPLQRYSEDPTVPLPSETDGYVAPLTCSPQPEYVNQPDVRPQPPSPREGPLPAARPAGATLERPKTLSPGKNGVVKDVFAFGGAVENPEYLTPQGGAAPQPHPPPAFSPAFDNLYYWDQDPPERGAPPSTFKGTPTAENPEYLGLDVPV
T6 sequence (P04626 with tags, fused parts or gaps INS775YVMA): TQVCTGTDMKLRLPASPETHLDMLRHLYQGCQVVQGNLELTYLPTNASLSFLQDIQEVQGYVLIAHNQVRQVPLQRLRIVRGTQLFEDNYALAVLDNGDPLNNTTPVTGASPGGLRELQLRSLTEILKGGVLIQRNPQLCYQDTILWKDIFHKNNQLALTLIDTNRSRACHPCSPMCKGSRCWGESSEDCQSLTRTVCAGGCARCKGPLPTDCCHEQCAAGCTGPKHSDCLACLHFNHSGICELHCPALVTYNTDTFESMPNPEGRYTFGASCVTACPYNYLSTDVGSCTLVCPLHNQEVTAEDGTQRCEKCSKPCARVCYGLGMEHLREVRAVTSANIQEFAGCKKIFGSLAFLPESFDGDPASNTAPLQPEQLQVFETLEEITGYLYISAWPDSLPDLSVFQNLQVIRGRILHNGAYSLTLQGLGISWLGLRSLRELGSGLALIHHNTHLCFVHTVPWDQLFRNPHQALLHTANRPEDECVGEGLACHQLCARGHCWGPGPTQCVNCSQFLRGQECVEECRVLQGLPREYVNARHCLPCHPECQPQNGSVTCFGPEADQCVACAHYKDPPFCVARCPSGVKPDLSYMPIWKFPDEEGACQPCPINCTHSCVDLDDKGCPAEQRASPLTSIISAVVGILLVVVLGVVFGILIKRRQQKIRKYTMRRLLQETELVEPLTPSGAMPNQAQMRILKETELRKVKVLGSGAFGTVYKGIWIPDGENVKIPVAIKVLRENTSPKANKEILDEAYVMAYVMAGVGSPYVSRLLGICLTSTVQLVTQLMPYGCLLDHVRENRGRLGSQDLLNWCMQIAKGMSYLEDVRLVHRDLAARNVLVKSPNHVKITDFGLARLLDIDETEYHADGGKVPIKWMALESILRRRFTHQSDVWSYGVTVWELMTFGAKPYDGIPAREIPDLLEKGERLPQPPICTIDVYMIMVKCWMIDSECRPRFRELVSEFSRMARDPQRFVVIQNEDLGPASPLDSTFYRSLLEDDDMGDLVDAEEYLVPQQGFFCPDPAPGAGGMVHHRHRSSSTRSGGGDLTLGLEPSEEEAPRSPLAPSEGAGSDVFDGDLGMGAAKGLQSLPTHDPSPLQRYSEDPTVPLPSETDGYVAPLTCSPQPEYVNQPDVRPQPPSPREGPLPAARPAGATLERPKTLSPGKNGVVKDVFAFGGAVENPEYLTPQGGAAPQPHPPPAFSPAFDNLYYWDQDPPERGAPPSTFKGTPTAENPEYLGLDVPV
T1 sequence (P04626 23-1255): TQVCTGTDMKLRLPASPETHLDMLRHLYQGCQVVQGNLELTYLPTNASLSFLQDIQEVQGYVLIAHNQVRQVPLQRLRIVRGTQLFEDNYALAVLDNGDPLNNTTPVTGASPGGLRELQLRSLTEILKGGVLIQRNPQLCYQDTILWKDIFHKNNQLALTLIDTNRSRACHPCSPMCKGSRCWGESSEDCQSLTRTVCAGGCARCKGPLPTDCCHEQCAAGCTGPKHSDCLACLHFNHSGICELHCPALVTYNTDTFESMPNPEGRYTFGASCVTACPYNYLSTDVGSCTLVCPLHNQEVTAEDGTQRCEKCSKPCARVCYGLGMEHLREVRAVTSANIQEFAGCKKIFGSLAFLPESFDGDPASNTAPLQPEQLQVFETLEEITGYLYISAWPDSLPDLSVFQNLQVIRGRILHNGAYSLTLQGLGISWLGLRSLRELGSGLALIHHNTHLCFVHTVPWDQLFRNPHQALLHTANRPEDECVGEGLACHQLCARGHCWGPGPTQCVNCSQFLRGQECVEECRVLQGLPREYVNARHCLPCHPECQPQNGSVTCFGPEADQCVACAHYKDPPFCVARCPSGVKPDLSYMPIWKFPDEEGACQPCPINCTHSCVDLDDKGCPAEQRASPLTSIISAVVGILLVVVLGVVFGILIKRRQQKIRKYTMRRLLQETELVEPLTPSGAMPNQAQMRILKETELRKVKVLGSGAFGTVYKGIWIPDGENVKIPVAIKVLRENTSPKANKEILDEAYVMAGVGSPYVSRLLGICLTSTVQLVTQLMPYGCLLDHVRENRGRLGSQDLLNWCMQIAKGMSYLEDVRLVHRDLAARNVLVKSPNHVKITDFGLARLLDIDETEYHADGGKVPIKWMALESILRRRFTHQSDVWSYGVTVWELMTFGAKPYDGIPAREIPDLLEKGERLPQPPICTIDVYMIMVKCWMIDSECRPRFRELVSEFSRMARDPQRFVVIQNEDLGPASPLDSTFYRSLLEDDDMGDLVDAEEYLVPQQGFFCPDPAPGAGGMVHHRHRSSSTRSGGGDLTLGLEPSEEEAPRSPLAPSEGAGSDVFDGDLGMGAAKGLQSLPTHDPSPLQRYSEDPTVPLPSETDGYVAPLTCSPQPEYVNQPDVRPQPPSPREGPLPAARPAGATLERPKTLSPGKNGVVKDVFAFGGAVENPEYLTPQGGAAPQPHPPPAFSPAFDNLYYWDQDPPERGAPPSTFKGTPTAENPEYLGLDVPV
T15 sequence (P04626 with tags, fused parts or gaps INS773WL/M774V): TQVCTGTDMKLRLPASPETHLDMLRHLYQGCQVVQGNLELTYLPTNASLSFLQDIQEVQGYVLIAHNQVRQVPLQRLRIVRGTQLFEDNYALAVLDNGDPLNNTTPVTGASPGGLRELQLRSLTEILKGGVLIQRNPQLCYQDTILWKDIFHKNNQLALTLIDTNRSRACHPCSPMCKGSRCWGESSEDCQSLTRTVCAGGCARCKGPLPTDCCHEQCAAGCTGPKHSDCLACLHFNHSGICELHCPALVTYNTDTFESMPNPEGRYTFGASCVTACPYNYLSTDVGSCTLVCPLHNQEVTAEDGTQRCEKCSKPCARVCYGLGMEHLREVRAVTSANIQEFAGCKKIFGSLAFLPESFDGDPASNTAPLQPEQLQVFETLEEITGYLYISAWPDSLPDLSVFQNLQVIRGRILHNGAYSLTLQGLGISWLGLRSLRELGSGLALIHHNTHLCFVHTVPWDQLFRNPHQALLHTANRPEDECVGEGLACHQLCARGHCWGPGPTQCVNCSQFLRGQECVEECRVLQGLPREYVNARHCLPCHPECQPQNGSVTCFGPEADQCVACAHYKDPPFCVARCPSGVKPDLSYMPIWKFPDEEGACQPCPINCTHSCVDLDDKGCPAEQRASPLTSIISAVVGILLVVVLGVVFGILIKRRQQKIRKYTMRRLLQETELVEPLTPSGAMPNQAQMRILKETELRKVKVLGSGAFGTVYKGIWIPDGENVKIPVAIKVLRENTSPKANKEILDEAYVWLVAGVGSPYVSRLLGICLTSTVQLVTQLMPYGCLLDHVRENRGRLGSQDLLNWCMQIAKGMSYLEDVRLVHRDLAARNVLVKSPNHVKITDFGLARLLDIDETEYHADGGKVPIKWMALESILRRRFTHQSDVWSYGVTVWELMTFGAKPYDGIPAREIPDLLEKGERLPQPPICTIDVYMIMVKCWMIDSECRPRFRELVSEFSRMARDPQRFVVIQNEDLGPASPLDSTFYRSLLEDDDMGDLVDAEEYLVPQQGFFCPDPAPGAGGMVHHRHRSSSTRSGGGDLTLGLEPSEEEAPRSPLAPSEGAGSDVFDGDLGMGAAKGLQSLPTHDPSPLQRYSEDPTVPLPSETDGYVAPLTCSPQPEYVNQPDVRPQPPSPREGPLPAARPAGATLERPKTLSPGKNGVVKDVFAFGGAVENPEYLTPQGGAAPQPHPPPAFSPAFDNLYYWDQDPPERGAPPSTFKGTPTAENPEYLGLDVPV

| EC50 [1] | EGFR phosphorylation (Western blot, FIG. 1) [2] | EC50 [3] | EC50 [4] | EC50 [5] | EC50 [6] | EGFR phosphorylation (Western blot, FIG. 1) [7] | EC50 [8] | EC50 [9] | EC50 [10] | EC50 [11] | EC50 [12] | EC50 [13] | EC50 [14] | EGFR phosphorylation (Western blot, FIG. 1) [15] | EC50 [16] | EC50 [17] | EC50 [18] | EC50 [19] | SMILES |
| --- | --- | --- | --- | --- | --- | --- | --- | --- | --- | --- | --- | --- | --- | --- | --- | --- | --- | --- | --- |
| < 100 nM | decrease in EGFR phosphorylation | < 200 nM | < 200 nM | < 100 nM | < 100 nM | decrease in EGFR phosphorylation | < 100 nM | < 200 nM | < 200 nM | < 200 nM | < 100 nM | < 100 nM | < 200 nM | decrease in EGFR phosphorylation | < 200 nM | < 100 nM | < 100 nM | < 100 nM | C=CC(=O)Nc1cccc(-n2c(=O)c(Oc3ccc(F)cc3F)cc3cnc(Nc4cnn(C)c4)nc32)c1 [Compound 2] |
| < 100 nM | – | < 200 nM | < 200 nM | – | < 100 nM | – | < 100 nM | < 200 nM | < 200 nM | < 200 nM | – | – | < 200 nM | – | < 200 nM | – | 100 to 250 nM | < 100 nM | C=CC(=O)Nc1cccc(-n2c(=O)c(Oc3ccc(F)cc3)cc3cnc(Nc4cnn(C)c4)nc32)c1 [Compound 1, N-(3-(6-(4-fluorophenoxy)-2-((1-methyl-1H-pyrazol-4-yl)amino)-7-oxopyrido[2,3-d]pyrimidin-8(7H)-yl)phenyl)acrylamide] |
